This test concerns INS-1E rat beta cells, no cytokines, CellTiter-Glo ATP, 48 h. Nature of the test: cytokine-free beta-cell viability effect – INS-1E rat cells, ATP luminescence, cherry pick, counter-screen for beta-cell apoptosis protection project, dose response (AID 463229).
For `C[N+]1=C(/C=C/Nc2ccccc2Cl)C(C)(C)c2ccccc21`, the AC50 was 12.2 µM.
The result for `COc1cccc(COc2cc3ccccc3nc2C)c1` reads 3.51 µM; that for `Cc1ccnc2c1ccc1c(C)ccnc12`, 3.39 µM; that for `COC1=C(Nc2ccccc2)C(=O)c2ccccc2C1=O`, 17.4 µM.
Consider `COc1cnc(-c2ccccn2)nc1Sc1ccccc1Cl`, for which the AC50 was 23.1 µM.
For the compound `CCCCCCCCCCOC(=O)Cn1c(COc2ccccc2)[n+](C)c2ccccc21`, the AC50 was 4.25 µM.
As to `CCCCCCCCCCCCn1ccc(=N)cc1`, the AC50 was 0.515 µM.
The result for `Cc1onc(-c2c(Cl)cccc2Cl)c1C(=O)N/N=C(\N)COc1ccc(Cl)cc1` reads 14.5 µM; that for `Cc1cccc(NC(=O)Nc2cccc(Oc3c(F)c(F)c(F)c(F)c3F)c2)c1`, 6.96 µM.
`COc1ccc(/C=C/C(=O)c2ccc([N+](=O)[O-])o2)cc1OC`: the AC50 was 4.93 µM.
As for `Nc1ccc(Br)cc1-c1nc2ccccc2[nH]c1=O`, the AC50 was 1.32 µM.
The result for `O=C(Nc1cccc(NC(=O)c2cc([N+](=O)[O-])ccc2Cl)n1)c1cc([N+](=O)[O-])ccc1Cl` reads 14.8 µM; that for `Cc1ccc(Nc2c3c(nc4ccccc24)CCC3)cc1`, 16 µM; that for `OCCNc1nc(Nc2ccc(Cl)c(Cl)c2)nc2ccccc12`, 14.3 µM.
`Cc1cc(C)n(-c2nc(Nc3ccccc3C(F)(F)F)nc(-n3nc(C)cc3C)n2)n1`: the AC50 was 6.87 µM.
As to `CCn1c(=O)c(C(=O)Nc2nc3ccccc3[nH]2)c(O)c2ccccc21`, the half-maximal activity concentration (AC50) is 6.03 µM.
The result for `Cc1cc(N)c2cc(NC(=O)/C=C/c3ccccc3Cl)ccc2n1` reads 14.2 µM.
Consider `COc1ccc(Br)cc1CN1CCN(Cc2c[nH]c3ccccc23)CC1`, for which the AC50 is 7.35 µM.
Consider `COc1ccc(/C=N/NC(=O)c2nc(-c3ccccc3)n(-c3ccccc3)n2)c(O)c1`, for which the AC50 was 4.37 µM.
The result for `O=C(OCn1ncc(Br)c(Br)c1=O)c1ccccc1Cl` reads 4.55 µM; that for `COc1ccc(/C=N/Nc2cc(C)nc(-n3nc(C)cc3C)n2)cc1`, 16.1 µM.
In the case of `COc1ccc(-c2nn(-c3ccccc3)cc2/C=N/N2C(=O)CSC2=S)cc1`, the AC50 is 6.57 µM.
`CC(C)(C)c1ccc(NNC(=O)C2CCC2)cc1`: the AC50 is 9.64 µM.
The result for `Cc1ccc(Nc2cc(C)nn2-c2nc(C)cc(=O)[nH]2)cc1` reads 1.57 µM.
The result for `Cc1ccc(C(C)C)c(OCc2ccc(C(=O)N/N=C/c3ccc(O)cc3O)cc2)c1` reads 3.99 µM.
The result for `CC(=O)N1CCN(c2ccc(Oc3ccc([N+](=O)[O-])c(C(F)(F)F)c3)cc2)CC1` reads 7.04 µM; that for `Cc1ccc(-c2nc(NC(=O)c3nn(C)cc3[N+](=O)[O-])sc2C)cc1C`, 3.43 µM; that for `CCOc1ccc(-n2c(-c3ccccc3)c[n+]3c2CCCCC3)cc1`, 0.85 µM.
Regarding `COc1cc(CNC2CCCC2)cc(Cl)c1OCc1ccccc1Cl`, the AC50 was 14.6 µM.
The result for `Cc1nc2ccccn2c1C(=O)/C=C/c1cccc([N+](=O)[O-])c1` reads 7.93 µM.
Regarding `Cc1ccc(NC(=O)c2cc(S(=O)(=O)NCCC3=CCCCC3)ccc2F)cc1`, the AC50 was 7.48 µM.
Consider `CCC(C)(C)c1ccc(OCCCC[n+]2cccc(C)c2C)c(C(C)(C)CC)c1`, for which the AC50 is 0.804 µM.
The result for `Cc1ccc(-n2c(-c3ccccc3)c[n+]3c2CCC3)cc1` reads 3.11 µM; that for `CCC(/C=C1\Sc2ccc(OC)cc2N1CC)=C\c1sc2ccc(OC)cc2[n+]1CCCS(=O)(=O)[O-]`, 5.74 µM; that for `CC(=O)Nc1sc2c(c1-c1nc3ccccc3s1)CN(C(C)C)CC2`, 3.79 µM.
For `COc1ccc(-c2nc3ccc(C)cn3c2NCc2ccccc2)cc1SC1CCCCC1`, the AC50 is 2.34 µM.
The result for `Cc1ccc(C(=O)Nc2nc(-c3ccccn3)cs2)cc1S(=O)(=O)N1CCOCC1` reads 6.47 µM.
Regarding `O=C(c1ccc([N+](=O)[O-])s1)N1CCN(c2cccc(Cl)c2)CC1`, the AC50 is 19.3 µM.
Regarding `CN(C1=C(NC(=O)c2ccc(Cl)cc2)C(=O)c2ccccc2C1=O)c1ccccc1`, the AC50 is 13 µM.
The result for `Clc1cccc(N=C2NN=C(c3ccc4c(c3)OCCO4)CS2)c1` reads 1.76 µM; that for `O=C(N/N=C/c1ccc([N+](=O)[O-])o1)c1ccc(O)cc1`, 7.45 µM.
The result for `CC1CN(S(=O)(=O)c2ccc(C(=O)NCCCn3ccnc3)cc2)CC(C)O1` (stereo unspecified) reads 1.39 µM; that for `O=C(N/N=C/c1cc(Br)ccc1OC(=O)c1ccc(Br)cc1)c1ccncc1`, 6.01 µM; that for `O=C1C=C(c2ccc(F)cc2OCc2ccccc2)C[C@@H](c2ccc(Cl)cc2)C1`, 5.46 µM.
The result for `O=C(Nc1ccc(OC(F)(F)F)cc1)Nc1cccc([N+](=O)[O-])c1` reads 3.8 µM; that for `O=C1C(=O)c2ccc(-c3ccccc3)cc2-c2ccccc21`, 1.1 µM; that for `C=C1CCc2c([nH]c3ccc(OCC(C)C)cc23)C1=O`, 7.5 µM.
`N#CCC(=O)N/N=C/c1cc(-c2ccccc2)n(-c2ccc(Cl)cc2)c1-c1ccccc1`: the AC50 is 2.29 µM.
As for `Cc1ccc(C(=O)NC2CCCc3c2cnn3-c2ccc(F)cc2F)cn1` (stereo unspecified), the AC50 is 7.07 µM.
The result for `C=CCc1cccc(/C=N/NC(=O)c2ccccc2OC)c1O` reads 9.61 µM; that for `Cc1ccc(Nc2nc(NCc3ccco3)c3ccccc3n2)cc1`, 8.02 µM; that for `C/C(=N\NC(=O)C(C)n1nc(C)c([N+](=O)[O-])c1C)c1ccccc1O` (stereo unspecified), 12.5 µM.
The result for `Nc1cc2c3c(cccc3c1)C(=O)N(CCN1CCCC1)C2=O` reads 12.7 µM; that for `COc1ccc(CNCCC(c2ccc(OC(C)C)cc2)c2ccccc2OC)cc1` (stereo unspecified), 12.2 µM.
The result for `Oc1c(CN2CCOCC2)cc(COCc2ccccc2)c2cccnc12` reads 8.19 µM; that for `CCCCCn1c(=O)c(C(=O)Nc2nc3ccccc3[nH]2)c(O)c2ccccc21`, 7.03 µM.
`COc1ccc2cc3[n+](cc2c1OC)CCc1cc2c(cc1-3)OCO2`: the AC50 is 5.44 µM.
The result for `CCCCNC(=O)c1ccc(Cn2c(=S)[nH]c3c([nH]c4ccc(OC)cc43)c2=O)cc1` reads 6.92 µM; that for `O=C(Nc1cc(Sc2ccccn2)cc([N+](=O)[O-])c1)c1ccc(Cl)cc1`, 8.9 µM; that for `COc1cccc(/C=N/Nc2ccc([N+](=O)[O-])cn2)c1O`, 7.78 µM.
The result for `CC1CCN(Cc2c(C(=O)N/N=C/c3cc(Br)ccc3O)nnn2-c2nonc2N)CC1` reads 2.52 µM.
With `O=[N+]([O-])c1cccc(-c2cn3nc(-c4ccccc4)c(-c4ccccc4)nc3n2)c1`, the AC50 was 10 µM.
The result for `NS(=O)(=O)c1ccc(N=Nc2ccc(O)c3ncccc23)cc1` reads 8.05 µM.
`COc1cccc(C(=O)Oc2c(Br)cc(Br)cc2/C=N/NC(=O)c2cc(C)[nH]n2)c1`: the AC50 is 7.17 µM.
For the compound `CC1CCC/C=C/C2CC(O)CC2C(O)/C=C/C(=O)O1` (stereo unspecified), the AC50 was 0.759 µM.
The result for `Cc1ccccc1-[n+]1c(-c2ccccc2)cc(-c2ccccc2)cc1-c1ccccc1` reads 2.2 µM.
On to `Cc1ccc(-c2nn(-c3ccccc3)cc2/C=N/NC(=O)c2ccc(Br)o2)cc1`, for which the AC50 was 0.569 µM.
`O=C(NCCCn1ccnc1)c1ccc(N2CCCCCC2)c([N+](=O)[O-])c1`: the AC50 is 8.09 µM.
In the case of `CCOc1ccc(-c2cc(C(=O)NCCCn3ccnc3)c3cc(Br)ccc3n2)cc1`, the AC50 is 12.6 µM.
With `CC1=NN(c2nc3ccccc3[nH]2)C(=O)/C1=C/N(C)C`, the AC50 is 2.9 µM.
On to `Cc1ccc(-c2csc(N3CCC(NS(=O)(=O)c4ccc5c(c4)OCCO5)CC3)n2)cc1`, for which the AC50 is 6.85 µM.
On to `CCCNC1=C(N(C(C)=O)c2cccc(F)c2)C(=O)c2ccccc2C1=O`, for which the AC50 is 3.06 µM.
The result for `CC(C)c1ccccc1-n1c(SCC(=O)N2CCc3ccccc3C2)nc2ccccc2c1=O` reads 2.42 µM.
For `Cc1cc(C(=O)NC2CCCc3c2cnn3-c2cccc(C)c2C)n(C)n1` (stereo unspecified), the AC50 is 0.342 µM.
As for `O=[N+]([O-])c1ccc(-[n+]2ccc3ccccc3c2)c([N+](=O)[O-])c1`, the AC50 is 7.89 µM.
The result for `O=C(CSc1nnc(Cn2nnc3ccccc32)o1)N(Cc1ccc(Cl)cc1)c1ccccc1` reads 6.17 µM.
The result for `CCc1ccc(OCC(=O)NC(NC(=S)Nc2ccc(C)cc2C)C(Cl)(Cl)Cl)cc1` (stereo unspecified) reads 11.2 µM; that for `S=C(c1cn(CCOc2cccc3ccccc23)c2ccccc12)N1CCCC1`, 7.48 µM; that for `CCSc1ccc(NC(=O)c2cccnc2)cc1`, 11.1 µM.
The result for `COc1ccc(S(=O)(=O)Nc2ccc3oc(C)c(C(C)=O)c3c2)cc1` reads 12.3 µM; that for `CCCCCCSc1cccc(-c2nc3ccccn3c2NCc2ccccc2)c1`, 6.25 µM.
`CCn1c(=NC(=O)c2ccc(S(=O)(=O)N3CCOCC3)cc2)sc2cccc(OC)c21`: the AC50 is 8.4 µM.
On to `N#CC(C#N)=C(Nc1ccc(F)cc1)SCc1cccc(Br)c1`, for which the AC50 was 3.02 µM.
The result for `COc1cc(C(=O)Oc2c(CN3CCOCC3)cc(Cl)c3cccnc23)cc(OC)c1OC` reads 13.3 µM; that for `COc1ccccc1/C=C1\SC(=O)N(CCC(=O)NCCCn2ccnc2)C1=O`, 8.2 µM; that for `Cc1nc2c(=O)n(C)c(=O)nc-2n(C)n1`, 2.06 µM.
For the compound `Oc1ccc(COCc2ccccc2)c2cccnc12`, the half-maximal activity concentration (AC50) is 4.28 µM.
The result for `Cc1nn(C)c(C)c1CN(Cc1nc(CCC(C)C)no1)C(C)C` reads 4.22 µM; that for `Cc1ccccc1N=Nc1ccc(O)c2ncccc12`, 4.41 µM.
The result for `CCN(CC)c1ccc(/C=N/NC(=O)c2cnccn2)c(O)c1` reads 2.01 µM.
The result for `CC(C)[C@H]1C(=O)O[C@H](C(C)C)C(=O)N(C)[C@@H](C(C)C)C(=O)O[C@H](C(C)C)C(=O)N(C)[C@@H](C(C)C)C(=O)O[C@H](C(C)C)C(=O)N1C` reads 3.8 µM; that for `Clc1ccc(C(c2ccc(Cl)cc2)n2cc[n+](CC(OCc3ccc(Cl)cc3Cl)c3ccc(Cl)cc3Cl)c2)cc1` (stereo unspecified), 3.69 µM.
With `Cn1nc(-c2ccccn2)nc2c(=O)n(C)c(=O)nc1-2`, the AC50 is 3.1 µM.
The result for `Clc1ccc2nnnc(-c3ccccc3)c2c1` reads 7.48 µM; that for `Cc1ccc(NC(=O)COc2ccc(N(C)C(=O)C(C)(C)C)cc2)cc1S(=O)(=O)N1CCCCC1`, 5.78 µM; that for `COCCNc1nc2c(c(=O)n(C)c(=O)n2C)n1Cc1cccc(C(F)(F)F)c1`, 12.1 µM.

Values taken from PubChem BioAssay AID463229 (Broad Institute, 2010).
